# Assay results published in ChEMBL document CHEMBL1649198, “Efflux unbalance in Pseudomonas aeruginosa isolates from cystic fibrosis patients” (2009).
# Assays:
# Pseudomonas aeruginosa [1] = experiment: Antimicrobial activity against ampicillin- and ticarcillin-resistant Pseudomonas aeruginosa FE60 mutant transformed with pAGH97 carrying mexXY F29S mutant by twofold macrodilution method; format: functional
# Pseudomonas aeruginosa [2] = experiment: Antimicrobial activity against Pseudomonas aeruginosa isolate 615R obtained from cystic fibrosis patient by disk diffusion method; format: functional
# Pseudomonas aeruginosa [3] = experiment: Antimicrobial activity against Pseudomonas aeruginosa isolate 3020R obtained from cystic fibrosis patient by agar dilution method
# Pseudomonas aeruginosa [4] = experiment: Antimicrobial activity against Pseudomonas aeruginosa isolate 2858 obtained from cystic fibrosis patient by disk diffusion method; format: functional
# Pseudomonas aeruginosa [5] = experiment: Antimicrobial activity against ampicillin- and ticarcillin-resistant Pseudomonas aeruginosa FE60 mutant transformed with pAGH97 carrying mexXY operon by twofold macrodilution method; format: functional
# Pseudomonas aeruginosa [6] = experiment: Antimicrobial activity against Pseudomonas aeruginosa isolate 2804 obtained from cystic fibrosis patient by disk diffusion method; format: functional
# Pseudomonas aeruginosa [7] = experiment: Antimicrobial activity against Pseudomonas aeruginosa isolate 2715 obtained from cystic fibrosis patient by agar dilution method
# Pseudomonas aeruginosa [8] = experiment: Antimicrobial activity against Pseudomonas aeruginosa isolate 2721 obtained from cystic fibrosis patient by agar dilution method
# Pseudomonas aeruginosa [9] = experiment: Antimicrobial activity against Pseudomonas aeruginosa isolate 2998 obtained from cystic fibrosis patient by agar dilution method
# Pseudomonas aeruginosa [10] = experiment: Antimicrobial activity against Pseudomonas aeruginosa isolate 2729 obtained from cystic fibrosis patient by disk diffusion method; format: functional
# Pseudomonas aeruginosa [11] = experiment: Antimicrobial activity against Pseudomonas aeruginosa isolate 2716 obtained from cystic fibrosis patient by agar dilution method
# Pseudomonas aeruginosa [12] = experiment: Antimicrobial activity against Pseudomonas aeruginosa isolate 2933 obtained from cystic fibrosis patient by disk diffusion method; format: functional
# Pseudomonas aeruginosa [13] = experiment: Antimicrobial activity against ampicillin- and ticarcillin-resistant Pseudomonas aeruginosa FE60 mutant transformed with pAGH97 carrying mexXY F1018L mutant by twofold macrodilution method; format: functional
# Pseudomonas aeruginosa [14] = experiment: Antimicrobial activity against Pseudomonas aeruginosa isolate 3066 obtained from cystic fibrosis patient by disk diffusion method; format: functional
# Pseudomonas aeruginosa [15] = experiment: Antimicrobial activity against Pseudomonas aeruginosa mutGR1 overexpressing mexXY mutant by twofold macrodilution method; format: functional
# Pseudomonas aeruginosa [16] = experiment: Antimicrobial activity against Pseudomonas aeruginosa isolate 615S obtained from cystic fibrosis patient by disk diffusion method; format: functional
# Pseudomonas aeruginosa [17] = experiment: Antimicrobial activity against mexXY deficient ampicillin- and ticarcillin-resistant Pseudomonas aeruginosa FE60 mutant by twofold macrodilution method; format: functional
# Pseudomonas aeruginosa [18] = experiment: Antimicrobial activity against Pseudomonas aeruginosa PAO1 by twofold macrodilution method; format: functional
# Pseudomonas aeruginosa [19] = experiment: Antimicrobial activity against Pseudomonas aeruginosa isolate 3020S obtained from cystic fibrosis patient by disk diffusion method; format: functional
# Pseudomonas aeruginosa [20] = experiment: Antimicrobial activity against Pseudomonas aeruginosa isolate 2721 expressing inactivated mexB gene by disk diffusion method; format: functional
# Pseudomonas aeruginosa [21] = experiment: Antimicrobial activity against mexXY operon inactivated Pseudomonas aeruginosa PAO1 by twofold macrodilution method; format: functional
# Pseudomonas aeruginosa [22] = experiment: microbe, parasite or virus in culture; conditions: isolate 2716
# Description: Antimicrobial activity against Pseudomonas aeruginosa isolate 2716 expressing inactivated mexB gene by disk diffusion method
# Pseudomonas aeruginosa [23] = experiment: microbe, parasite or virus in culture; conditions: isolate 2729
# Description: Antimicrobial activity against Pseudomonas aeruginosa isolate 2729 expressing inactivated mexB gene by disk diffusion method
# Pseudomonas aeruginosa [24] = experiment: microbe, parasite or virus in culture; conditions: isolate 3020S
# Description: Antimicrobial activity against Pseudomonas aeruginosa isolate 3020S expressing inactivated mexB gene by disk diffusion method
# Pseudomonas aeruginosa [25] = experiment: Antimicrobial activity against Pseudomonas aeruginosa isolate 2998 expressing inactivated mexB gene by disk diffusion method; format: functional
# Pseudomonas aeruginosa [26] = experiment: microbe, parasite or virus in culture; conditions: isolate 3066
# Description: Antimicrobial activity against Pseudomonas aeruginosa isolate 3066 expressing inactivated mexB gene by disk diffusion method
# Pseudomonas aeruginosa [27] = experiment: microbe, parasite or virus in culture; conditions: isolate 2715
# Description: Antimicrobial activity against Pseudomonas aeruginosa isolate 2715 expressing inactivated mexB gene by disk diffusion method
# Pseudomonas aeruginosa [28] = experiment: microbe, parasite or virus in culture; conditions: isolate 3020R
# Description: Antimicrobial activity against Pseudomonas aeruginosa isolate 3020R expressing inactivated mexB gene by disk diffusion method
# Pseudomonas aeruginosa [29] = experiment: Antimicrobial activity against Pseudomonas aeruginosa isolate 2933 expressing inactivated mexB gene by disk diffusion method; format: functional
# Pseudomonas aeruginosa [30] = experiment: microbe, parasite or virus in culture; conditions: isolate 615R
# Description: Antimicrobial activity against Pseudomonas aeruginosa isolate 615R expressing inactivated mexB gene by disk diffusion method
# Pseudomonas aeruginosa [31] = experiment: Ratio of MIC for mexB deficient Pseudomonas aeruginosa FB1 mutant to Pseudomonas aeruginosa PAO1; format: functional
# Pseudomonas aeruginosa [32] = experiment: Antimicrobial activity against Pseudomonas aeruginosa isolate 615R with inactivated mexB gene obtained from cystic fibrosis patient by disk diffusion method
# Pseudomonas aeruginosa [33] = experiment: Antimicrobial activity against mexB gene inactivated Pseudomonas aeruginosa isolate 3020R obtained from cystic fibrosis patient by agar dilution method
# Pseudomonas aeruginosa [34] = experiment: Antimicrobial activity against Pseudomonas aeruginosa isolate 2933 obtained from cystic fibrosis patient
# Pseudomonas aeruginosa [35] = experiment: Antimicrobial activity against mexB gene inactivated Pseudomonas aeruginosa isolate 3020S obtained from cystic fibrosis patient by agar dilution method
# Pseudomonas aeruginosa [36] = experiment: Antimicrobial activity against Pseudomonas aeruginosa isolate 2998 obtained from cystic fibrosis patient
# Pseudomonas aeruginosa [37] = experiment: Antimicrobial activity against Pseudomonas aeruginosa isolate 3066 obtained from cystic fibrosis patient
# Pseudomonas aeruginosa [38] = experiment: Antimicrobial activity against Pseudomonas aeruginosa isolate 2729 obtained from cystic fibrosis patient
# Pseudomonas aeruginosa [39] = experiment: Antimicrobial activity against mexB gene inactivated Pseudomonas aeruginosa isolate 2715 obtained from cystic fibrosis patient by agar dilution method
# Pseudomonas aeruginosa [40] = experiment: Antimicrobial activity against mexB gene inactivated Pseudomonas aeruginosa isolate 2721 obtained from cystic fibrosis patient by agar dilution method
# Pseudomonas aeruginosa [41] = experiment: Antimicrobial activity against mexB gene inactivated Pseudomonas aeruginosa isolate 2716 obtained from cystic fibrosis patient by agar dilution method
# Pseudomonas aeruginosa [42] = experiment: Antimicrobial activity against mexXY operon inactivated Pseudomonas aeruginosa isolate 2858 obtained from cystic fibrosis patient by disk diffusion method; format: functional, organism-based
# Pseudomonas aeruginosa [43] = experiment: Antimicrobial activity against mexXY operon inactivated Pseudomonas aeruginosa isolate 615S obtained from cystic fibrosis patient by disk diffusion method; format: functional, organism-based
Compound,MIC (Pseudomonas aeruginosa [1]),MIC (Pseudomonas aeruginosa [2]),MIC (Pseudomonas aeruginosa [3]),MIC (Pseudomonas aeruginosa [4]),MIC (Pseudomonas aeruginosa [5]),MIC (Pseudomonas aeruginosa [6]),MIC (Pseudomonas aeruginosa [7]),MIC (Pseudomonas aeruginosa [8]),MIC (Pseudomonas aeruginosa [9]),MIC (Pseudomonas aeruginosa [10]),MIC (Pseudomonas aeruginosa [11]),MIC (Pseudomonas aeruginosa [12]),MIC (Pseudomonas aeruginosa [13]),MIC (Pseudomonas aeruginosa [14]),MIC (Pseudomonas aeruginosa [15]),MIC (Pseudomonas aeruginosa [16]),MIC (Pseudomonas aeruginosa [17]),MIC (Pseudomonas aeruginosa [18]),MIC (Pseudomonas aeruginosa [19]),MIC (Pseudomonas aeruginosa [21]),also measured
CO/N=C(\C(=O)N[C@@H]1C(=O)N2C(C(=O)[O-])=C(C[N+]3(C)CCCC3)CS[C@H]12)c1csc(N)n1,8 µg/mL,4 µg/mL,4 µg/mL,4 µg/mL,8 µg/mL,32 µg/mL,16 µg/mL,8 µg/mL,8 µg/mL,8 µg/mL,8 µg/mL,16 µg/mL,16 µg/mL,32 µg/mL,8 µg/mL,–,–,–,–,–,–
NCC[C@H](O)C(=O)N[C@@H]1C[C@H](N)[C@@H](O[C@H]2O[C@H](CN)[C@@H](O)[C@H](O)[C@H]2O)[C@H](O)[C@H]1O[C@H]1O[C@H](CO)[C@@H](O)[C@H](N)[C@H]1O [AMIKACIN],4 µg/mL,16 µg/mL,32 µg/mL,8 µg/mL,4 µg/mL,128 µg/mL,8 µg/mL,32 µg/mL,16 µg/mL,16 µg/mL,8 µg/mL,32 µg/mL,8 µg/mL,128 µg/mL,8 µg/mL,2 µg/mL,0.5 µg/mL,2 µg/mL,2 µg/mL,–,–
C[C@H]1[C@H](NC(=O)/C(=N\OC(C)(C)C(=O)O)c2csc(N)n2)C(=O)N1S(=O)(=O)O [AZTREONAM],–,0.25 µg/mL,0.25 µg/mL,0.25 µg/mL,–,0.25 µg/mL,0.5 µg/mL,0.25 µg/mL,0.12 µg/mL,0.25 µg/mL,0.25 µg/mL,0.25 µg/mL,–,0.25 µg/mL,–,0.12 µg/mL,–,–,–,0.12 µg/mL,MIC (Pseudomonas aeruginosa [20]): 0.12 µg/mL; MIC (Pseudomonas aeruginosa [22]): 0.25 µg/mL; MIC (Pseudomonas aeruginosa [23]): 0.25 µg/mL; MIC (Pseudomonas aeruginosa [24]): 0.25 µg/mL; MIC (Pseudomonas aeruginosa [25]): 0.12 µg/mL; MIC (Pseudomonas aeruginosa [26]): 0.25 µg/mL; MIC (Pseudomonas aeruginosa [27]): 0.25 µg/mL; MIC (Pseudomonas aeruginosa [28]): 0.25 µg/mL; MIC (Pseudomonas aeruginosa [29]): 0.12 µg/mL; MIC (Pseudomonas aeruginosa [30]): 0.25 µg/mL
CC(C)(O/N=C(\C(=O)N[C@@H]1C(=O)N2C(C(=O)[O-])=C(C[n+]3ccccc3)CS[C@H]12)c1csc(N)n1)C(=O)O [CEFTAZIDIME],–,–,–,4 µg/mL,–,2 µg/mL,–,0.5 µg/mL,0.5 µg/mL,–,–,0.5 µg/mL,–,> 8 µg/mL,–,–,–,–,–,–,–
O=C(O)c1cn(C2CC2)c2cc(N3CCNCC3)c(F)cc2c1=O [CIPROFLOXACIN],–,1 µg/mL,–,–,–,16 µg/mL,1 µg/mL,1 µg/mL,1 µg/mL,1 µg/mL,–,–,1 µg/mL,16 µg/mL,–,4 µg/mL,–,–,–,–,–
CO[C@@H]1[C@@H](OC(N)=O)[C@@H](O)[C@H](Oc2ccc3c(O)c(NC(=O)c4ccc(O)c(CC=C(C)C)c4)c(=O)oc3c2C)OC1(C)C [NOVOBIOCIN],–,4 µg/mL,16 µg/mL,64 µg/mL,–,8 µg/mL,16 µg/mL,32 µg/mL,32 µg/mL,32 µg/mL,32 µg/mL,8 µg/mL,–,32 µg/mL,512 µg/mL,64 µg/mL,–,512 µg/mL,512 µg/mL,32 µg/mL,fold change (FC) (Pseudomonas aeruginosa [31]): 16; MIC (Pseudomonas aeruginosa [32]): 4 µg/mL; MIC (Pseudomonas aeruginosa [33]): 16 µg/mL; MIC (Pseudomonas aeruginosa [34]): 4 µg/mL; MIC (Pseudomonas aeruginosa [35]): 8 µg/mL; MIC (Pseudomonas aeruginosa [36]): 32 µg/mL; MIC (Pseudomonas aeruginosa [37]): 32 µg/mL; MIC (Pseudomonas aeruginosa [38]): 32 µg/mL; MIC (Pseudomonas aeruginosa [39]): 8 µg/mL; MIC (Pseudomonas aeruginosa [40]): 32 µg/mL; MIC (Pseudomonas aeruginosa [41]): 32 µg/mL
CC1(C)S[C@@H]2[C@H](NC(=O)[C@H](C(=O)O)c3ccsc3)C(=O)N2[C@H]1C(=O)O [TICARCILLIN],–,2 µg/mL,2 µg/mL,2 µg/mL,–,0.5 µg/mL,2 µg/mL,2 µg/mL,0.5 µg/mL,0.5 µg/mL,2 µg/mL,0.5 µg/mL,–,2 µg/mL,32 µg/mL,1 µg/mL,–,32 µg/mL,16 µg/mL,–,fold change (FC) (Pseudomonas aeruginosa [31]): 64
NC[C@H]1O[C@H](O[C@H]2[C@H](O)[C@@H](O[C@H]3O[C@H](CO)[C@@H](O)[C@H](N)[C@H]3O)[C@H](N)C[C@@H]2N)[C@H](N)C[C@@H]1O [TOBRAMYCIN],0.5 µg/mL,2 µg/mL,4 µg/mL,1 µg/mL,0.5 µg/mL,64 µg/mL,2 µg/mL,4 µg/mL,4 µg/mL,2 µg/mL,1 µg/mL,4 µg/mL,1 µg/mL,16 µg/mL,1 µg/mL,0.25 µg/mL,0.06 µg/mL,0.5 µg/mL,0.5 µg/mL,–,–
GENTAMICIN,1 µg/mL,8 µg/mL,–,4 µg/mL,1 µg/mL,64 µg/mL,–,–,–,8 µg/mL,–,16 µg/mL,2 µg/mL,64 µg/mL,2 µg/mL,1 µg/mL,0.125 µg/mL,1 µg/mL,2 µg/mL,0.125 µg/mL,MIC (Pseudomonas aeruginosa [42]): 0.125 µg/mL; MIC (Pseudomonas aeruginosa [43]): 0.125 µg/mL
